Assay results: the SangsterLogP compilation

Experiment: method code SF-AS, from DOI: 10.1111/j.2042-7158.1993.tb07096.x, PMID: 7901370
Conditions: pH 7.4

SMILES | logD
CCNC(=S)NS(=O)(=O)c1cnccc1NC1CCCCCCC1 | 0.96
CCNC(=S)NS(=O)(=O)c1cnccc1NC1CCCCC1 | 0.2
O=S(=O)(NC(=S)N1CCCCC1)c1cnccc1NC1CCCCC1 | 0.85
O=S(=O)(NC(=S)N1CCCCC1)c1cnccc1NC1CCCCCCC1 | 1.6

Results, then the compound that gave them:

logD | SMILES
1.3 | CC(C)NC(=S)NS(=O)(=O)c1cnccc1NC1CCCCCCC1
1.25 | O=S(=O)(NC(=S)N1CCCCC1)c1cnccc1NC1CCCCCC1
1.81 | O=S(=O)(NC(=S)NC1CCCCC1)c1cnccc1NC1CCCCCC1
2.14 | O=S(=O)(NC(=S)NC1CCCCC1)c1cnccc1NC1CCCCCCC1
